# Results as given in patent publication US8092833B2, “Compositions containing inclusion complexes” (California Institute of Technology, priority 2000, dated 2012).
# Where a SMILES comes first, the peptide text is derived from it. The star is where a group is joined. Adamantane1carbonyl = O=C(C12CC3CC(CC(C3)C1)C2)*; {FITC} = fluorescein (FITC) label; Ad = adamantane
# Experiments:
# [1] = system: HepG2 cells; assay: Galactose-mediated luciferase transfection of HepG2 hepatoma cells (Example 49); type: cell-based; settings: for transfection of HepG2 cells: 12/pCMV-Luc, 2 CD:1 PEG
# Method: HepG2 cells were plated in 24-well plates at 50,000 cells/well. 1 μg of pCMV-Luc was contacted with an equal volume of 12 and modified as indicated below. Modification with PEG-containing complexing agents was done at a 2:1 CD:PEG ratio, where CD represents the cyclodextrins in 12.
# 200 μL of Optimem was added to each transfection mixture and transferred to each well of cells. 4 hours after transfection, 800 μL of complete media was added to each well. The media was removed, cells washed with PBS, and 1 mL of complete media added to each well 24 hours after transfection. 48 hours after transfection cells were washed with PBS, lysed and analyzed for luciferase activity. The described transfection procedure was also executed in the presence of 1 mM glucose or 1 mM galactose as a competitive inhibitor.
# [2] = Zeta potential of particulate composites modified with PEG-peptide-Ad agents (Example 49); type: physicochemical; settings: 12/pCMV-Luc, 2 CD:1 PEG
# [3] = system: BHK-21 cells; assay: Toxicity of GALA / GALA-Ad compositions by total protein of cell lysates (Example 35); type: cell-based; settings: peptide added to 12/pGL-CV3 5+/−, 48 hours after transfection
# Method: The toxicity of GALA and GALA-Ad modified compositions was determined by measuring the protein concentrations of the cell lysates obtained in the transfection experiments. BHK-21 cells were transfected with 1 μg of pGL-CV3 complexed with 12 at 5+/−charge ratio. Prior to transfection, various ratios of GALA and GALA-Ad were added to the complexes. Cell survival for transfections in the presence of GALA (solid bars) and GALA-Ad (white bars) was determined by assaying for total protein concentrations 48 hours after transfection and normalizing each sample with protein levels for untransfected cells. The protein concentrations are reported as the mean±SD of three replicates were averaged and divided by the average protein concentration of cells transfected with 12/pGL-CV3 compositions alone and reported as fraction cell survival (FIG. 7).
# [4] = Zeta potential of Tf-modified polyplexes (Example 58); type: physicochemical; settings: 12/DNA 3+/−
# Method: An equivolume aliquot of 12 was added to an aliquot of plasmid DNA ([…], 0.1 mg/mL in water) at a 3+/−charge ratio to form the particulate composite. Holo-transferrin or holo-Tf-PEG-Ad (17 mg/mL in water) was then added to the particulate composite. The particles were diluted by the addition of 1.2 mL of water and zeta potential determined by measurements on a ZetaPals dynamic light scattering instrument (Brookhaven Instruments). The unmodified holo-transferrin associates with the particulate composites by electrostatic interactions. […] The holo-Transferrin-PEG-Ad (designated Tf-PEG-Ad in FIG. 25) is likely to associate to the particulate composites by both electrostatic and inclusion compound interactions. Therefore, there is a higher association of holo-Tf-PEG-Ad with the particles, as evidenced by the continued decrease in zeta potential of the modified particles with higher concentrations of holo-Tf-PEG-Ad. At 2 nmol Tf/μg, particulate composites modified with holo-Tf-PEG-Ad are negatively charged (zeta potential ˜−7 mV).
# [5] = system: HUH-7 cells; assay: FITC-Oligo uptake by HUH-7 cells after post-complexation pegylation, FACS (Example 41); type: cell-based; settings: 3+/− charge ratio, 1:1 PEG to cyclodextrin, 15 minute incubation
# Method: Step 1: Transfection mixtures were prepared as follows: An equal volume of cationic, 12 was added to 3 μg of FITC-Oligos (0.1 μg/μL in water) at a 3+/−charge ratio of polymer to DNA. To the complexes was added free PEG or Ad-PEG5000 (as prepared in Example 40) at a 1:1 PEG to cyclodextrin ratio.
# Step 2. HUH-7 cells were plated at 3×10^5 cells/well in 6 well plates and maintained in 4 mLs of DMEM+10% FBS+Antibiotic/Antimycotic for 24 hours. After 24 hours, the cells were washed with PBS and 1 mL of Optimem containing the transfection mixtures of Step 1 was added to the cells. After a 15 minute incubation, the transfection media was removed, the cells were washed with PBS and 1 mL of Optimem was added to each well. The cells were incubated for another 30 minutes at 37° C. The cells were then washed with Cell Scrub Buffer (Gene Therapy Systems) to remove surface-associated complexes and PBS and then detached from the wells by trypsin treatment. The cells were then prepared and analyzed by FACS analysis for FITC-Oligo uptake. The modification of the complexes by Ad-PEG5000 decreases uptake of the FITC-Oligo/polymer complexes.
molecule,measurement,setting,value
PEG5000-CAEAEAEAE-Ad [PEG-Pep-Ad],transfection of HepG2 cells,[1],do not readily transfect cells
same,zeta potential (sign),[2],negative
Galactose-PEG3400-CAEAEAEAE-Ad [Gal-PEG-Pep-Ad],transfection in the presence of free galactose,[1]; 1 mM galactose as competitive inhibitor,inhibited
same,transfection of HepG2 cells,[1],enhanced transfection
CC(C)C[C@H](NC(=O)[C@H](C)NC(=O)[C@H](CCC(=O)O)NC(=O)[C@H](CC(C)C)NC(=O)[C@H](C)NC(=O)[C@H](CCC(=O)O)NC(=O)[C@H](C)NC(=O)[C@H](CC(C)C)NC(=O)[C@H](C)NC(=O)[C@H](CCC(=O)O)NC(=O)[C@H](C)NC(=O)[C@H](CC(C)C)NC(=O)[C@H](Cc1c[nH]cn1)NC(=O)[C@H](CCC(=O)O)NC(=O)[C@H](C)NC(=O)[C@H](CC(C)C)NC(=O)[C@H](C)NC(=O)[C@H](CCC(=O)O)NC(=O)[C@H](C)NC(=O)[C@H](CC(C)C)NC(=O)[C@H](C)NC(=O)[C@H](CCC(=O)O)NC(=O)[C@H](C)NC(=O)[C@H](CC(C)C)NC(=O)[C@H](C)NC(=O)[C@H](C)NC(=O)[C@H](CCC(=O)O)NC(=O)[C@H](Cc1c[nH]c2ccccc12)NC(=O)C12CC3CC(CC(C3)C1)C2)C(=O)N[C@@H](C)C(=O)N[C@@H](C)C(=O)O [GALA-Ad] (Adamantane1carbonyl-WEAALAEALAEALAEHLAEALAEALEALAA-OH),toxicity to BHK-21 cells (fraction cell survival),[3],no observable toxicity
"CC(C)C[C@H](NC(=O)[C@H](C)NC(=O)[C@H](CCC(=O)O)NC(=O)[C@H](CC(C)C)NC(=O)[C@H](C)NC(=O)[C@H](CCC(=O)O)NC(=O)[C@H](C)NC(=O)[C@H](CC(C)C)NC(=O)[C@H](C)NC(=O)[C@H](CCC(=O)O)NC(=O)[C@H](C)NC(=O)[C@H](CC(C)C)NC(=O)[C@H](Cc1c[nH]cn1)NC(=O)[C@H](CCC(=O)O)NC(=O)[C@H](C)NC(=O)[C@H](CC(C)C)NC(=O)[C@H](C)NC(=O)[C@H](CCC(=O)O)NC(=O)[C@H](C)NC(=O)[C@H](CC(C)C)NC(=O)[C@H](C)NC(=O)[C@H](CCC(=O)O)NC(=O)[C@H](C)NC(=O)[C@H](CC(C)C)NC(=O)[C@H](C)NC(=O)[C@H](C)NC(=O)[C@H](CCC(=O)O)NC(=O)[C@@H](N)Cc1c[nH]c2ccccc12)C(=O)N[C@@H](C)C(=O)N[C@@H](C)C(=O)O [GALA, WEAALAEALAEALAEHLAEALAEALEALAA, reference compound] (H-WEAALAEALAEALAEHLAEALAEALEALAA-OH)",toxicity to BHK-21 cells (fraction cell survival),[3],no observable toxicity
Glucose-PEG3400-CAEAEAEAE-Ad [Glu-PEG-Pep-Ad],transfection of HepG2 cells,[1],do not readily transfect cells
holo-transferrin: iron-loaded unmodified transferrin,particle charge,[4]; 2 nmol Tf/μg DNA,approach neutrality
"5′-FITC-ACT GCT TAC CAG GGA TTTCAG TGC A-3′ (DNA ACTGCTTACCAGGGATTTCAGTGCA; DNA, 5' {FITC}, backbone and methylation of C not given here) [FITC-Oligo]",Percent Transfected,[5],0%
Tf-PEG-Ad: human transferrin coupled via lysine groups to Vinylsulfone-PEG3400-Ad,zeta potential,[4]; 2 nmol Tf/μg,~−7 mV
